Measurements as given in ChEMBL document CHEMBL4373715, “Discovery and Biological Evaluations of Halogenated 2,4-Diphenyl Indeno[1,2-b]pyridinol Derivatives as Potent Topoisomerase IIα-Targeted Chemotherapeutic Agents for Breast Cancer” (J Med Chem, 2019).

How the values were obtained:
[1] = target: DNA topoisomerase 2-alpha (Homo sapiens) (UniProt P11388); experiment: Inhibition of recombinant human topoisomerase 2alpha-mediated relaxation of supercoiled pBR322 DNA at 20 uM measured after 30 mins by ethidium bromide staining based agarose gel electrophoresis relative to control
Sequence of DNA topoisomerase 2-alpha (Homo sapiens) (P11388 whole entry): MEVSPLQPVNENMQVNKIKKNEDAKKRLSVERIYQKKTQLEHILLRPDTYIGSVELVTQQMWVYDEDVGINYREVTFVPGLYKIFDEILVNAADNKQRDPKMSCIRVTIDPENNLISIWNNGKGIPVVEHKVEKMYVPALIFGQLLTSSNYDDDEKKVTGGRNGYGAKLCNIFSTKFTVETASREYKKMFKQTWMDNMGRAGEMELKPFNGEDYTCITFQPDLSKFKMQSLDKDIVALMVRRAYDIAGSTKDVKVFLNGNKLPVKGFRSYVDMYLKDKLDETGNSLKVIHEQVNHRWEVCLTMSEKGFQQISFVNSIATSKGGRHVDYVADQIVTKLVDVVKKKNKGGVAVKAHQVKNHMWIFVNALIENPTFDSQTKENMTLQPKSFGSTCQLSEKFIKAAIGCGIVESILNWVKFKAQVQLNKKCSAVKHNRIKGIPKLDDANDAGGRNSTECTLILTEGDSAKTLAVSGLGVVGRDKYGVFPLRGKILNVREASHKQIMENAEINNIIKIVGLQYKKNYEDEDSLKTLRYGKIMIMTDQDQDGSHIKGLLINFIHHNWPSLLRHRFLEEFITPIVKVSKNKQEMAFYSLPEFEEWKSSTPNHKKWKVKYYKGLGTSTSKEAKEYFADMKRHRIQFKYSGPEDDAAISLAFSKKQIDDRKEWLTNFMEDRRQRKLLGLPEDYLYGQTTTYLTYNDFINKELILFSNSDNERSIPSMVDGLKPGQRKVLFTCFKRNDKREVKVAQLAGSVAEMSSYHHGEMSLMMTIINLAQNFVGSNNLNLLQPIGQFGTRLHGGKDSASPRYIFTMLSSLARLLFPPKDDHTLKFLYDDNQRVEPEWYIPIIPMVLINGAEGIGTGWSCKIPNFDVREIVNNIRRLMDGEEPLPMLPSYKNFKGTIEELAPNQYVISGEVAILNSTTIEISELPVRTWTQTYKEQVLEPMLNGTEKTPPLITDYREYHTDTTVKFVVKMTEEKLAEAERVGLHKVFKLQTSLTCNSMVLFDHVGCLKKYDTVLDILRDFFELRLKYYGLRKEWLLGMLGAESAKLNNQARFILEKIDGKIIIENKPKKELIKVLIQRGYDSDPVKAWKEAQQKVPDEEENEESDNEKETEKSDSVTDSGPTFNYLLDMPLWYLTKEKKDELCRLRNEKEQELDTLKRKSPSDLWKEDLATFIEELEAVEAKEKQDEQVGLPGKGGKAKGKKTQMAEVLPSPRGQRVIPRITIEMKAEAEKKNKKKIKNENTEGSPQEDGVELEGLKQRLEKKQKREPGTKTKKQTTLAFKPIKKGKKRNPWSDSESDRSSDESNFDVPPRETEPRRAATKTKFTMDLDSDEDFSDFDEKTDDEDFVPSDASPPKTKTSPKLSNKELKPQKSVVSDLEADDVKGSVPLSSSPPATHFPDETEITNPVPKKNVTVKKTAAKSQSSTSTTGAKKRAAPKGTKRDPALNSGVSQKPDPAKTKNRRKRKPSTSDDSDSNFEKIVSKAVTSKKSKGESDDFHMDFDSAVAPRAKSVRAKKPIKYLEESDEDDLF

[2] = target: DNA topoisomerase 2-alpha (Homo sapiens) (UniProt P11388); experiment: Inhibition of recombinant human topoisomerase 2alpha-mediated relaxation of supercoiled pBR322 DNA at 100 uM measured after 30 mins by ethidium bromide staining based agarose gel electrophoresis relative to control
[3] = target: T1, DNA topoisomerase 1 (Homo sapiens) (UniProt P11387); experiment: Inhibition of recombinant human topoisomerase 1-mediated relaxation of supercoiled pBR322 DNA at 100 uM measured after 30 mins by ethidium bromide staining based agarose gel electrophoresis relative to control
T1 sequence (whole entry): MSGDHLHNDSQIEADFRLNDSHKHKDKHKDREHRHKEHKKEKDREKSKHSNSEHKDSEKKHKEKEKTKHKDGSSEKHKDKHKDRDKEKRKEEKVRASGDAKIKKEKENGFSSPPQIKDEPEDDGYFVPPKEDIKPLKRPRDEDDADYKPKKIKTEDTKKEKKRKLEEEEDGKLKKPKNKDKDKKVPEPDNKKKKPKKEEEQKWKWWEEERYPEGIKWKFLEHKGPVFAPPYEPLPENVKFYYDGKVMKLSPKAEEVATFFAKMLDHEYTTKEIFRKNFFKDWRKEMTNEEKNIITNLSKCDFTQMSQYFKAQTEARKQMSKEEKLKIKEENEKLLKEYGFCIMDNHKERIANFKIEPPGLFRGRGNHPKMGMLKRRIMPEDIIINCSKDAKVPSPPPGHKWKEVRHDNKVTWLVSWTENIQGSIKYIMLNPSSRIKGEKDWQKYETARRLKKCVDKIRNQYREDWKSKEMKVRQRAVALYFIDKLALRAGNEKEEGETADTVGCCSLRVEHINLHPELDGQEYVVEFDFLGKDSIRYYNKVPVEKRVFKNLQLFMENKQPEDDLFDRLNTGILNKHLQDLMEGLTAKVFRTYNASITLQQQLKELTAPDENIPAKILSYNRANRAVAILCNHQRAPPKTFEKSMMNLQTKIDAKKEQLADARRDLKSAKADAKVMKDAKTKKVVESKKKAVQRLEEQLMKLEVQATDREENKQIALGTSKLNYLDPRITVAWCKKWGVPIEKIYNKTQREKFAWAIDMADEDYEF

DU-145 = experiment: Antiproliferative activity against human DU145 cells measured after 72 hrs by EZ-Cytox assay; type: functional, cell-based; settings: DU-145, 72 h
HCT-15 = experiment: Antiproliferative activity against human HCT15 cells measured after 72 hrs by EZ-Cytox assay; type: functional, cell-based; settings: HCT-15, 72 h
HeLa = experiment: Antiproliferative activity against human HeLa cells measured after 72 hrs by EZ-Cytox assay; type: functional, cell-based
T47D = experiment: Antiproliferative activity against human T47D cells measured after 72 hrs by EZ-Cytox assay; type: functional, cell-based

Structure (SMILES) | inhibition [1] | inhibition [2] | inhibition [3] | IC50 (DU-145) | IC50 (HCT-15) | IC50 (HeLa) | IC50 (T47D)
Oc1ccccc1-c1cc(-c2cccc(C(F)(F)F)c2)nc2c1Cc1cccc(O)c1-2 | 4.3% | 95.8% | 2.7% | 3380 nM | 2840 nM | 5730 nM | 980 nM
Oc1ccc(-c2cc(-c3cccc(Cl)c3)c3c(n2)-c2c(O)cccc2C3)cc1 | 13.3% | 71.6% | 3.2% | 6040 nM | > 50000 nM | 43800 nM | 19000 nM
Oc1cccc(-c2cc(-c3ccc(Cl)cc3)c3c(n2)-c2c(O)cccc2C3)c1 | 8.5% | 95.7% | 9.3% | 4070 nM | 14700 nM | 9010 nM | 2220 nM
Oc1ccc(-c2cc(-c3ccc(Cl)cc3)nc3c2Cc2ccc(O)cc2-3)cc1 | 0% | 74.5% | 0% | 2250 nM | 3220 nM | 1730 nM | 1150 nM
Oc1cccc(-c2cc(-c3cccc(C(F)(F)F)c3)nc3c2Cc2ccc(O)cc2-3)c1 | 10.5% | 90.7% | 5.2% | 1540 nM | 8610 nM | 4700 nM | 1330 nM
Oc1ccc2c(c1)-c1nc(-c3ccc(Cl)cc3)cc(-c3ccccc3O)c1C2 | 25.7% | 86.6% | 8% | 490 nM | 1780 nM | 4610 nM | 720 nM
Oc1ccc2c(c1)-c1nc(-c3ccc(C(F)(F)F)cc3)cc(-c3ccccc3O)c1C2 | 3% | 100% | 0% | 2800 nM | 3250 nM | 2230 nM | 670 nM
Oc1ccc(-c2cc(-c3ccccc3)c3c(n2)-c2cc(O)ccc2C3)cc1 | 9.3% | 54.8% | 20.9% | 570 nM | 1430 nM | 2740 nM | 3430 nM
Oc1ccc2c(c1)-c1nc(-c3ccccc3O)cc(-c3ccc(Cl)cc3)c1C2 | 0% | 21.4% | 2.9% | > 50000 nM | > 50000 nM | > 50000 nM | > 50000 nM
Oc1cccc(-c2cc(-c3ccc(F)cc3)nc3c2Cc2ccc(O)cc2-3)c1 | 5.4% | 48.3% | 11.7% | 1060 nM | 1460 nM | 3820 nM | 680 nM
Oc1ccc(-c2cc(-c3cccc(C(F)(F)F)c3)nc3c2Cc2c(O)cccc2-3)cc1 | 0% | 84.4% | 9.4% | 1750 nM | 2620 nM | 4570 nM | 1230 nM
Oc1ccccc1-c1cc(-c2ccc(Cl)cc2)nc2c1Cc1c(O)cccc1-2 | 7% | 80.3% | 14.5% | 610 nM | 2310 nM | 1960 nM | 1250 nM
Oc1cccc2c1-c1nc(-c3ccccc3)cc(-c3ccccc3)c1C2 | 0% | 57.5% | 0% | 1400 nM | 2070 nM | 3080 nM | 740 nM
Oc1ccc(-c2cc(-c3cccc(Cl)c3)nc3c2Cc2ccc(O)cc2-3)cc1 | 56.4% | 71.3% | 8.7% | 480 nM | 2360 nM | > 50000 nM | 600 nM
Oc1ccc2c(c1)Cc1c(-c3cccc(Cl)c3)cc(-c3ccccc3O)nc1-2 | 3.4% | 74.3% | 1.6% | > 50000 nM | > 50000 nM | > 50000 nM | > 50000 nM
Oc1cccc(-c2cc(-c3ccccc3F)nc3c2Cc2cc(O)ccc2-3)c1 | 4.9% | 44.6% | 9.1% | 1620 nM | 3580 nM | 3980 nM | 2240 nM
Oc1cccc(-c2cc(-c3ccc(F)cc3)nc3c2Cc2cc(O)ccc2-3)c1 | 28.7% | 65.1% | 22.3% | 2940 nM | 1920 nM | 3740 nM | 1720 nM

Structure (SMILES) | inhibition [1] | inhibition [2] | inhibition [3] | IC50 (DU-145) | IC50 (HCT-15) | IC50 (HeLa) | IC50 (T47D)
Oc1cccc(-c2cc(-c3ccccc3)nc3c2Cc2c(O)cccc2-3)c1 | 0% | 95.4% | 4.6% | 190 nM | 2520 nM | 6740 nM | 2890 nM
Oc1ccc(-c2cc(-c3ccc(F)cc3)nc3c2Cc2cccc(O)c2-3)cc1 | 1.4% | 75.3% | 1.2% | > 50000 nM | > 50000 nM | > 50000 nM | 24500 nM
Oc1cccc(-c2cc(-c3cccc(Cl)c3)c3c(n2)-c2c(O)cccc2C3)c1 | 0.3% | 71.9% | 8.9% | 17100 nM | > 50000 nM | > 50000 nM | > 50000 nM
Oc1cccc(-c2cc(-c3cccc(C(F)(F)F)c3)nc3c2Cc2c(O)cccc2-3)c1 | 40.5% | 67.3% | 5.6% | 1620 nM | 2690 nM | 4170 nM | 1910 nM
Oc1ccccc1-c1cc(-c2ccccc2)nc2c1Cc1cccc(O)c1-2 | 0.1% | 95.8% | 0.1% | 170 nM | 1360 nM | 2950 nM | 2440 nM
Oc1cccc(-c2cc(-c3ccccc3)c3c(n2)-c2ccc(O)cc2C3)c1 | 3.3% | 36% | 10.2% | 270 nM | 1300 nM | 5700 nM | 4120 nM
Oc1ccc(-c2cc(-c3ccccc3Cl)nc3c2Cc2cccc(O)c2-3)cc1 | 3.6% | 30.3% | 0% | 190 nM | 2970 nM | 2850 nM | 610 nM
Oc1cccc(-c2cc(-c3cccc(F)c3)nc3c2Cc2cc(O)ccc2-3)c1 | 0% | 66.2% | 17.5% | 1410 nM | 2710 nM | 3850 nM | 790 nM
Oc1ccc(-c2cc(-c3ccccc3Cl)c3c(n2)-c2c(O)cccc2C3)cc1 | 0.8% | 66.9% | 10.3% | 860 nM | 1050 nM | 2790 nM | 960 nM
Oc1cccc(-c2cc(-c3ccc(Cl)cc3)c3c(n2)-c2cccc(O)c2C3)c1 | 4.4% | 86.3% | 0% | 3940 nM | 2580 nM | 4630 nM | 2110 nM
Oc1cccc(-c2cc(-c3cccc(Cl)c3)c3c(n2)-c2cc(O)ccc2C3)c1 | 3.5% | 76.3% | 11.6% | 3220 nM | 6600 nM | 6240 nM | 7200 nM
Oc1ccc2c(c1)-c1nc(-c3ccccc3)cc(-c3ccccc3)c1C2 | 5.5% | 79.9% | 2.6% | 3490 nM | 3130 nM | 4380 nM | 190 nM
Oc1ccc(-c2cc(-c3cccc(F)c3)nc3c2Cc2cccc(O)c2-3)cc1 | 3.9% | 67% | 1.1% | 5780 nM | > 50000 nM | 7200 nM | 750 nM
Oc1ccc2c(c1)Cc1c(-c3ccccc3O)cc(-c3ccc(Cl)cc3)nc1-2 | 4.4% | 97.5% | 26.8% | 650 nM | 3970 nM | 3840 nM | 620 nM
Oc1ccccc1-c1cc(-c2ccc(F)cc2)nc2c1Cc1cccc(O)c1-2 | 0% | 34.4% | 0% | 1400 nM | 2070 nM | 3080 nM | 740 nM
Oc1ccccc1-c1cc(-c2ccc(F)cc2)nc2c1Cc1c(O)cccc1-2 | 0% | 67% | 0% | 2360 nM | 4310 nM | 32000 nM | 610 nM
